Reference: PubChem BioAssay AID2060616 (Molecular Pharmacology Branch, DTP, NCI, 2025)
Values joined by “and” are separate entries in the source; they are usually repeats but may differ in a detail not shown here. Identical values can stand only once.

Tested on: 377384-186-R-J1-PDC complex spheroid viability
Test: Anticancer human tumor 377384-186-R-J1-PDC patient-derived pancreatic carcinoma cell line growth inhibition [CLK]
Conditions: for viability, T/C: stronger effect = lower value
Method in brief: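 Multi-cell-type spheroids combined patient-derived tumor cells with HUVEC endothelial cells and human mesenchymal stem cells. Paired agents were dosed in half-log steps down from about clinical Cmax, or from 10 microM where Cmax was unknown.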

[1] = curve of first compound, second compound 0.0316 µM
[2] = curve of first compound, second compound 0.1 µM
[3] = curve of first compound, second compound 0.316 µM
[4] = curve of first compound, second compound 1 µM
[5] = curve of first compound, second compound 3.16 µM
[6] = curve of first compound, second compound 10 µM
[7] = second compound 0.0316 µM, first compound 0.0316 µM
[8] = second compound 0.0316 µM, first compound 0.1 µM
[9] = second compound 0.0316 µM, first compound 0.316 µM
[10] = second compound 0.0316 µM, first compound 1 µM
[11] = second compound 0.0316 µM, first compound 3.16 µM
[12] = second compound 0.0316 µM, first compound 10 µM
[13] = second compound 0.1 µM, first compound 0.0316 µM
[14] = second compound 0.1 µM, first compound 0.1 µM
[15] = second compound 0.1 µM, first compound 0.316 µM
[16] = second compound 0.1 µM, first compound 1 µM
[17] = second compound 0.1 µM, first compound 3.16 µM
[18] = second compound 0.1 µM, first compound 10 µM
[19] = second compound 0.316 µM, first compound 0.0316 µM
[20] = second compound 0.316 µM, first compound 0.1 µM
[21] = second compound 0.316 µM, first compound 0.316 µM
[22] = second compound 0.316 µM, first compound 1 µM
[23] = second compound 0.316 µM, first compound 3.16 µM
[24] = second compound 0.316 µM, first compound 10 µM
[25] = second compound 1 µM, first compound 0.0316 µM
[26] = second compound 1 µM, first compound 0.1 µM
[27] = second compound 1 µM, first compound 0.316 µM
[28] = second compound 1 µM, first compound 1 µM
[29] = second compound 1 µM, first compound 3.16 µM
[30] = second compound 1 µM, first compound 10 µM
[31] = second compound 3.16 µM, first compound 0.0316 µM
[32] = second compound 3.16 µM, first compound 0.1 µM
[33] = second compound 3.16 µM, first compound 0.316 µM
[34] = second compound 3.16 µM, first compound 1 µM
[35] = second compound 3.16 µM, first compound 3.16 µM
[36] = second compound 3.16 µM, first compound 10 µM
[37] = second compound 10 µM, first compound 0.0316 µM
[38] = second compound 10 µM, first compound 0.1 µM
[39] = second compound 10 µM, first compound 0.316 µM
[40] = second compound 10 µM, first compound 1 µM
[41] = second compound 10 µM, first compound 3.16 µM
[42] = second compound 10 µM, first compound 10 µM
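Further: spheroids exposed to agents for 7 days before reading.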
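Wherever viability, T/C is given: luminescence signal used as a stand-in for viable cells.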

SMILES: CCCS(=O)(=O)Nc1ccc(F)c(C(=O)c2c[nH]c3ncc(-c4ccc(Cl)cc4)cc23)c1F + CNC(=O)c1ccc(Nc2nc(OC3CCCC3)c3c(-c4ccc5nc(C)oc5c4)c[nH]c3n2)c(OC)c1
- IC50 [1]: > 10000 nM
- IC50 [2]: 1620 nM
- IC50 [3]: < 31.6 nM
- IC50 [4]: < 31.6 nM
- IC50 [5]: < 31.6 nM
- IC50 [6]: < 31.6 nM
- viability, T/C [7]: 103%
- viability, T/C [8]: 118%
- viability, T/C [9]: 115%
- viability, T/C [10]: 123%
- viability, T/C [11]: 107%
- viability, T/C [12]: 52.5%
- viability, T/C [13]: 65.1%
- viability, T/C [14]: 70%
- viability, T/C [15]: 49.1%
- viability, T/C [16]: 59.7%
- viability, T/C [17]: 44%
- viability, T/C [18]: 37.2%
- viability, T/C [19]: 19.9%
- viability, T/C [20]: 22.5%
- viability, T/C [21]: 23.6%
- viability, T/C [22]: 22.6%
- viability, T/C [23]: 32.6%
- viability, T/C [24]: 24.3%
- viability, T/C [25]: 18.9%
- viability, T/C [26]: 20.6%
- viability, T/C [27]: 23.6%
- viability, T/C [28]: 27%
- viability, T/C [29]: 30.7%
- viability, T/C [30]: 24.8%
- viability, T/C [31]: 19.8%
- viability, T/C [32]: 25.4%
- viability, T/C [33]: 23.9%
- viability, T/C [34]: 28%
- viability, T/C [35]: 29%
- viability, T/C [36]: 23.4%
- viability, T/C [37]: 21.5%
- viability, T/C [38]: 23.3%
- viability, T/C [39]: 26.8%
- viability, T/C [40]: 29.1%
- viability, T/C [41]: 31.1%
- viability, T/C [42]: 29%

SMILES: CC1(C)CCC(CN2CCN(c3ccc(C(=O)NS(=O)(=O)c4ccc(NCC5CCOCC5)c([N+](=O)[O-])c4)c(Oc4cnc5[nH]ccc5c4)c3)CC2)=C(c2ccc(Cl)cc2)C1 + CN1CCN(c2cc(C(=O)Nc3cc4cc(-c5cnn(C)c5)ccc4cn3)ccn2)CC1
- IC50 [1]: 5530 nM
- IC50 [2]: 5250 nM
- IC50 [3]: < 31.6 nM
- IC50 [4]: < 31.6 nM
- IC50 [5]: < 31.6 nM
- IC50 [6]: < 31.6 nM
- viability, T/C [7]: 96%
- viability, T/C [8]: 97.6%
- viability, T/C [9]: 102%
- viability, T/C [10]: 115%
- viability, T/C [11]: 89.7%
- viability, T/C [12]: 8.02%
- viability, T/C [13]: 95.7%
- viability, T/C [14]: 101%
- viability, T/C [15]: 89.8%
- viability, T/C [16]: 92.7%
- viability, T/C [17]: 83.8%
- viability, T/C [18]: 7.17%
- viability, T/C [19]: 24.6%
- viability, T/C [20]: 27.9%
- viability, T/C [21]: 27.9%
- viability, T/C [22]: 21.6%
- viability, T/C [23]: 20.4%
- viability, T/C [24]: 3.98%
- viability, T/C [25]: 1.15%
- viability, T/C [26]: 1.09%
- viability, T/C [27]: 1.14%
- viability, T/C [28]: 1.04%
- viability, T/C [29]: 1.22%
- viability, T/C [30]: 1.79%
- viability, T/C [31]: 0.38%
- viability, T/C [32]: 0.8%
- viability, T/C [33]: 0.43%
- viability, T/C [34]: 0.54%
- viability, T/C [35]: 1.02%
- viability, T/C [36]: 1.42%
- viability, T/C [37]: 0.41%
- viability, T/C [38]: 0.46%
- viability, T/C [39]: 0.55%
- viability, T/C [40]: 0.59%
- viability, T/C [41]: 0.61%
- viability, T/C [42]: 0.95%

SMILES: CC1COCCN1c1cc(C2(S(C)(=N)=O)CC2)nc(-c2ccnc3[nH]ccc23)n1 (stereo not drawn) + CNC(=O)c1ccc(Nc2nc(OC3CCCC3)c3c(-c4ccc5nc(C)oc5c4)c[nH]c3n2)c(OC)c1
- IC50 [1]: 2600 nM
- IC50 [2]: 232 nM
- IC50 [3]: < 31.6 nM
- IC50 [4]: < 31.6 nM
- IC50 [5]: < 31.6 nM
- IC50 [6]: < 31.6 nM
- viability, T/C [7]: 105%
- viability, T/C [8]: 110%
- viability, T/C [9]: 106%
- viability, T/C [10]: 83.5%
- viability, T/C [11]: 43.5%
- viability, T/C [12]: 17.4%
- viability, T/C [13]: 62.4%
- viability, T/C [14]: 56.8%
- viability, T/C [15]: 52%
- viability, T/C [16]: 41.1%
- viability, T/C [17]: 23.7%
- viability, T/C [18]: 19.9%
- viability, T/C [19]: 21.3%
- viability, T/C [20]: 23.4%
- viability, T/C [21]: 18.6%
- viability, T/C [22]: 16.9%
- viability, T/C [23]: 13.8%
- viability, T/C [24]: 9.16%
- viability, T/C [25]: 20.6%
- viability, T/C [26]: 20.9%
- viability, T/C [27]: 22.3%
- viability, T/C [28]: 17.9%
- viability, T/C [29]: 12%
- viability, T/C [30]: 7.93%
- viability, T/C [31]: 20.2%
- viability, T/C [32]: 21.2%
- viability, T/C [33]: 20.6%
- viability, T/C [34]: 18.9%
- viability, T/C [35]: 14.1%
- viability, T/C [36]: 9.68%
- viability, T/C [37]: 20.4%
- viability, T/C [38]: 19%
- viability, T/C [39]: 21.5%
- viability, T/C [40]: 19.4%
- viability, T/C [41]: 12.4%
- viability, T/C [42]: 9.21%

SMILES: COc1c(OCCCN2CCOCC2)ccc2c3n(c(=NC(=O)c4cnc(N)nc4)nc12)CCN3
- viability, T/C (compound 0.00316 µM): 89.6% and 77.6%
- viability, T/C (compound 0.01 µM): 72.4% and 61.6%
- viability, T/C (compound 0.0316 µM): 50% and 52.3%
- viability, T/C (compound 0.1 µM): 34.4% and 30.3%
- viability, T/C (compound 0.316 µM): 22.4% and 22.7%
- viability, T/C (compound 1 µM): 14.3% and 13.8%
- IC50 (curve of compound): 34.4 nM and 28.3 nM
